From patent publication US6900195B2, “Manzamines for treatment of drug resistant infection” (The University of Mississippi, priority 2000, dated 2005)
In brackets after ≈: the same amount, converted by molar mass. Like-named read-outs stand apart in the source and are kept apart here.

Legend:
M. tuberculosis (H37Rv) = experiment: microbe, parasite or virus in culture; assay type: cell-based, Mycobacterium tuberculosis
P. berghei N strain = experiment: Oral antimalarial activity against P. berghei N strain; assay type: in vivo, Plasmodium berghei; details: orally in DMSO, preliminary results
[1] = Cytotoxicity of microbial metabolites versus parent compounds (cells not stated); assay type: cell-based
P. berghei [2] = experiment: In vivo antimalarial activity in P. berghei-infected mice; set-up: species or system Plasmodium berghei; details: for reduction of parasitemia: single i.p. 100 μmoles/kg, comparison 2 days after treatment
Description: In Vivo Evaluation of Antimalarial Activity. (National University of Singapore by Dr. Kenny Ang, confirmation of activity at the WHO). Four-week-old, male Swiss albino mice are injected intraperitoneally with 10^7 P. berghei-infected mouse erythrocytes. On day 2 after infection, mice are treated with a single intraperitoneal injection of either the test compound or a reference drug (chloroquine or artemisinin) within a concentration range of 50 to 1,000 μmol/kg of body weight. All test compounds and reference drugs were injected as a suspension in 5% Tween 60 saline. For oral administration, the test compounds are given as a suspension in corn oil, and mice are given two consecutive doses of test compound at 100 μmol/kg on days 2 and 3 after infection. […] Control mice receive only 5% Tween 60 saline or corn oil. Survival of mice was recorded daily. Percent parasitemia is determined microscopically (magnification, ×1,000) from mouse-tail blood smears that were fixed with methanol and stained with Giemsa stain. Blood samples from individual P. berghei-infected mice were collected at various times after a single intraperitoneal treatment of 100 μmol/kg of manzamine A per kg on day 3 after infection. For transmission electron microscopy, approximately 0.5-ml blood samples are fixed with 3% glutaraldehyde in 0.1 M cacodylate buffer (pH 7.4), postfixed with 1% osmium tetroxide and 1% uranyl acetate, dehydrated in a graded ethanol series, and embedded in Spurr's resin. The resulting blocks are cut by using a Reichert-Jung Ultracut with a glass knife. Ultra thin sections were mounted on 150-mesh copper grids, stained with 1% uranyl acetate and 1% lead citrate, and examined with a JEM-100CX electron microscope. Manzamine in plasma was detected by liquid chromatography=selected reaction monitoring-mass spectrometry (LC-SRM-MS). P. berghei-infected mice will be treated with the alkaloid (100 μmol/kg intraperitoneally) on day 3 post infection. Blood samples are collected from individual mice at specific times up to 48 h posttreatment. Plasma was isolated by centrifugation and extracted with 95% acetonitrile containing 5 mM ammonium acetate. The plasma extract was filtered, and 5 μl samples are injected into a Shimadzu LC-10 AD microbore high-pressure liquid chromatograph interfaced with a Perkin-Elmer API 300 turbo-ion-spray tandem mass spectrometer. Samples are separated on a Prodigy C-18 column (30 by 1 mm, 5-μm inner diameter) by elution at 50 μl/min with 86% acetonitrile containing 5 mM ammonium acetate. Manzamine can be detected by monitoring the transition of the protonated manzamine precursor ion from the (M+H)^+ to the (M+H —H2O)^+. Peak areas for the product ion chromatograms are integrated, and concentrations are determined from a linear calibration curve for manzamine in spiked plasma. The limit of detection for the manzamines in plasma by LC-SRM-MS is 2.5 pg. Results are subjected to a nonparametric statistical assessment with a confidence interval of 99% (p<0.01) by using Analyse-it software linked to Microsoft Excel. The program uses the Mann-Whitney U test to determine significant differences between two groups of data.

[3] = tested on: P. falciparum D6 clone (Sierra Leone, chloroquine-sensitive); experiment: In vitro antimalarial activity, parasite LDH assay, D6 clone; assay type: cell-based, Plasmodium falciparum; details: for IC50: Plasmodium falciparum
Vero cells [4] = details: African green monkey, 48 h
[5] = tested on: P. falciparum W2 clone (Indochina, chloroquine-resistant); experiment: In vitro antimalarial activity, parasite LDH assay, W2 clone; assay type: cell-based, Plasmodium falciparum; details: for IC50: Plasmodium falciparum
Vero cells [6] = experiment: In vitro cytotoxicity to mammalian cells (neutral red)
HIV-1 in human PBM cells = experiment: Anti-HIV activity in human PBM cells; assay type: cell-based
human PBM cells = experiment: Cytotoxicity in human PBM cells; details: read-out: Cytotoxicity in human PBM cells IC50
T. gondii (C56 strain) = experiment: Survival of mice infected orally with T. gondii cysts; assay type: in vivo, Toxoplasma gondii
From the text: Toxoplasma gondii. […] Untreated infected mice in the control group started dying 10 days post infection. Mice treated with manzamine A died nine days after treatment stopped. […] FIGS. 1 and 2 provide the graphic results of this experiment. […] Treatment was begun on Day 1 following in infection and continued for 8 days.

[7] = Cytotoxicity in human PBM cells; details: human
P. berghei [8] = experiment: In vivo antimalarial activity in P. berghei-infected mice; set-up: species or system Plasmodium berghei; details: three 50 μmoles/kg i.p. doses
[9] = tested on: Plasmodium yoelii NS malaria strain; experiment: WHO Peters 4-day assay, Plasmodium yoelii NS in mice; assay type: in vivo
From the text: To confirm the activity of the manzamines against malaria the World Health Organization examined manzamine A against the Plasmodium yoelii NS malaria strain in mice (Peters 4-day assay-Handbook of Animal Models of Infection Chapter 92, Academic Press 1999).

[10] = Cytotoxicity against human lung and colon carcinoma cells; assay type: cell-based
[11] = tested on: P-388 mouse lymphoma cells; details: cited from earlier work
[12] = tested on: P-388 mouse lymphoma cells; experiment: Cytotoxicity against P-388 mouse lymphoma cells; assay type: cell-based
[13] = tested on: human lung and colon carcinoma cells; details: cited from earlier work
[14] = M. tuberculosis H37Rv, test concentration not given
[15] = Mycobacterium tuberculosis, M. tuberculosis H37Rv, read-out: MIC
[16] = P. berghei-infected mice, single i.p. dose 100 μmoles/kg
[17] = P. falciparum W2 clone, read-out: W2 Clone IC50

## 8,12-di-O-acetyl ent-8-hydroxymanzamine A [ent-8-Hydroxymanzamine A diAc]
M. tuberculosis (H37Rv); M. tuberculosis H37Rv
  MIC: <6.25 mg/L
M. tuberculosis (H37Rv); [14]
  % Inhibition: 95%

## 8-hydroxymanzamine
P. berghei N strain
  ED50: < 10 mg/kg

## 15,16,32,33-tetrahydro-ent-8-hydroxymanzamine A
M. tuberculosis (H37Rv); M. tuberculosis H37Rv
  MIC: <6.25 mg/L
M. tuberculosis (H37Rv); [14]
  % Inhibition: 100%

## O[C@]12C=C(c3nccc4c3[nH]c3ccccc34)C3CCN(CCCC/C=C\CC1)C[C@@]31C[C@]34CC[C@H](CCCN3[C@H]12)O4 (some centres unmarked) [6-Deoxymanzamine X, 6-deoxymanzamine X]
M. tuberculosis (H37Rv); M. tuberculosis H37Rv
  MIC: <12.5 mg/L
M. tuberculosis (H37Rv); [14]
  % Inhibition: 98%

## O=C1CCCN2[C@H]3[C@]45CN6CCCC/C=C\CC[C@]3(C=C(c3nccc7c3[nH]c3c(O)cccc37)[C@H]4CC6)O[C@@]2(CC1)C5 [8-HOMA Metabolite 1]
[1]
  cytotoxicity relative to the parent compounds: less cytotoxic than the parent compounds
M. tuberculosis (H37Rv); [14]
  % Inhibition: 98%
M. tuberculosis (H37Rv); [15]
  MIC: < 12.5 mg/L

## C[C@@H]1CC[C@H]2[C@@H](C)C(=O)O[C@@H]3O[C@@]4(C)CC[C@@H]1[C@]32OO4 [Artemisinin, artemisinin, reference compound]
P. berghei [2]; [16]
  average survival days: 2 to 3 days
[3]; P. falciparum D6 clone, read-out: D6 Clone IC50
  IC50: 0.01 mg/L (≈ 0.0354 µM)
Vero cells [4]
  Cytotoxicity TC50: >5,000 ng/mL
[5]; [17]
  IC50: 0.0063 mg/L (≈ 0.0223 µM)

## CCN(CC)CCCC(C)Nc1ccnc2cc(Cl)ccc12 (centres unmarked) [Chloroquine, chloroquine, reference compound]
Vero cells [6]
  Cytotoxicity TC50: >5,000 ng/mL
P. berghei [2]; P. berghei-infected mice
  reduction of parasitemia: comparable reduction of parasitemia
P. berghei [2]; in vivo, ip
  average survival days: 6 days
[3]; D6, read-out: D6 Clone IC50
  IC50: 0.0155 mg/L (≈ 0.0485 µM)
[5]; [17]
  IC50: 0.17 mg/L (≈ 0.531 µM)

## O=CC1=C[C@@]2(O)CC/C=C\CCCCN3CC[C@@H]1[C@]1(CC4/C=C\CCCCN4[C@H]12)C3 (some centres unmarked) [Ircinal A]
P. berghei [2]; mice
  activity in vivo against malaria: failed to show any activity in vivo against malaria
[1]
  cytotoxicity relative to the parent compounds: less cytotoxic than the parent compounds
M. tuberculosis (H37Rv); M. tuberculosis H37Rv
  MIC: <12.5 mg/L
M. tuberculosis (H37Rv); [14]
  % Inhibition: 98%
HIV-1 in human PBM cells; human PBM cells
  EC50: 45.2 µM
Human PBM cells
  IC50: 34.2 µM

## O[C@]12C=C(c3nccc4c3[nH]c3ccccc34)[C@@H]3CCN(CCCC/C=C\CC1)C[C@@]31C[C@@H]3/C=C\CCCCN3[C@@H]12 [Manzamine A]
Vero cells [6]
  Cytotoxicity TC50: 290 ng/mL
P. berghei [2]; P. berghei-infected mice
  reduction of parasitemia: comparable reduction of parasitemia
P. berghei [2]; P. berghei-infected mice, two oral doses 100 μmoles/kg
  reduction of parasitemia compared with control mice: 90%
P. berghei [2]; mice
  in vivo activity against P. berghei relative to chloroquine or artemisinin: in vivo activity against P. berghei greater than chloroquine or artemisinin
[3]; D6, read-out: D6 Clone IC50
  IC50: 0.0045 mg/L (≈ 0.0082 µM)
[3]; Vero TC50 relative to D6 IC50
  Selectivity index (SI), D6 clone: SI = 64
T. gondii (C56 strain); 8 mg/kg i.p. once a day for 8 days
  time of death after treatment stopped: nine
T. gondii (C56 strain); 8 mg/kg i.p. once a day for 8 days (paralysis, blindness, twirling)
  signs or behavior during treatment: no uncommon signs or behavior
T. gondii (C56 strain); 8 mg/kg i.p. once a day for 8 days, all control mice had died by day 16
  survival at day 16 of infection: all the manzamine A treated mice were alive
T. gondii (C56 strain); SW mice, 10 cysts C56 orally, 8 mg/kg i.p. once a day for 8 days from day 1
  time to death: significant prolongation of time to death
M. tuberculosis (H37Rv); [14]
  % Inhibition: 99%
M. tuberculosis (H37Rv); [15]
  MIC: 1.56 mg/L (≈ 2.84 µM)
HIV-1 in human PBM cells; Human immunodeficiency virus 1, PBMC
  EC50: 12.9 µM
[5]; W2, read-out: W2 Clone IC50
  IC50: 0.008 mg/L (≈ 0.0146 µM)
[5]; Vero TC50 relative to W2 IC50
  Selectivity index (SI), W2 clone: SI = 36
[7]
  IC50: 5.1 µM
P. berghei [8]
  outcome after three doses: curative and totally clears the parasite
[9]; Plasmodium yoelii, 96 h
  ED50: < 5 mg/kg
[9]; given orally in DMSO or carboxy-methylcellulose-based formulation
  activity relative to Na artesunate: more active than Na artesunate

## O=C1CCCN2[C@@H](CC1)C[C@]13CN4CCCC/C=C\CC[C@](O)(C=C(c5nccc6c5[nH]c5ccccc56)[C@@H]1CC4)[C@H]23 [Manzamine E]
M. tuberculosis (H37Rv); M. tuberculosis H37Rv
  MIC: 3.13 mg/L (≈ 5.54 µM)
M. tuberculosis (H37Rv); [14]
  % Inhibition: 99%
HIV-1 in human PBM cells; human PBM cells
  EC50: 18.7 µM
Human PBM cells
  IC50: 35.5 µM

## O[C@]12C=C(c3nccc4c3[nH]c3ccccc34)[C@@H]3CCN(CCCC/C=C\CC1)C[C@@]31CC/C=C\CCCCN[C@@H]12 [Manzamine J]
M. tuberculosis (H37Rv); [14]
  % Inhibition: 99%
M. tuberculosis (H37Rv); [15]
  MIC: < 12.5 mg/L

## CO[C@H]1/C=C/O[C@@]2(C)Oc3c(C)c(O)c4c(O)c(c(/C=N/N5CCN(C)CC5)c(O)c4c3C2=O)NC(=O)/C(C)=C\C=C\[C@H](C)[C@H](O)[C@@H](C)[C@@H](O)[C@@H](C)[C@H](OC(C)=O)[C@@H]1C [Rifampin, reference compound]
M. tuberculosis (H37Rv)
  % Inhibition: 100%
M. tuberculosis (H37Rv); Mycobacterium tuberculosis, H37RV
  MIC: 0.25 mg/L (≈ 0.304 µM)

## O=C1CCCN2[C@@H](CC1)C[C@]13CN4CCCC/C=C\CC[C@](O)(C=C(c5nccc6c5[nH]c5c(O)cccc56)C1CC4)[C@H]23 (stereo partly drawn) [ent-Manzamine F, ent-manzamine F]
M. tuberculosis (H37Rv); M. tuberculosis H37Rv
  MIC: >12.5 mg/L
HIV-1 in human PBM cells; human PBM cells
  EC50: 94.8 µM
Human PBM cells
  IC50: 40.8 µM

## O[C@@H]1CCCN2CC[C@@H]1O[C@@]13CC[C@@H](OC[C@]45CN6CCCC/C=C\CC[C@](O)(C=C(c7nccc8c7[nH]c7ccccc78)[C@@H]4CC6)[C@H]25)[C@@H](O)CCN1[C@@H]1[C@]2(CN4CCCC/C=C\CC[C@]1(O)C=C(c1nccc5c1[nH]c1ccccc15)[C@@H]2CC4)C3 [neo-Kauluamine, neo-kauluamine]
M. tuberculosis (H37Rv); [14]
  % Inhibition: 44%
M. tuberculosis (H37Rv); [15]
  MIC: > 12.5 mg/L
[10]
  IC50: 1 mg/L (≈ 0.859 µM)

## (+)-8-Hydroxymanzamine A
Vero cells [6]
  Cytotoxicity TC50: 320 ng/mL
[3]; P. falciparum D6 clone
  D6 Clone IC50: 0.006 mg/L
M. tuberculosis (H37Rv); M. tuberculosis H37Rv
  MIC: <6.25 mg/L
M. tuberculosis (H37Rv); [14]
  % Inhibition: 100%
[11]
  cytotoxicity, reported: inactive
[5]; P. falciparum W2 clone
  W2 Clone IC50: 0.008 mg/L

## (−)-12, 34-Oxamanzamine F
HIV-1 in human PBM cells; human PBM cells
  EC50: 20.4 µM
Human PBM cells
  IC50: 75.2 µM

## Manzamine L
M. tuberculosis (H37Rv); M. tuberculosis H37Rv
  MIC: <12.5 mg/L
M. tuberculosis (H37Rv); [14]
  % Inhibition: 99%

## ent-8-hydroxy-manzamine A [ent-8-Hydroxymanzamine A]
P. berghei [2]; P. berghei-infected mice
  reduction of parasitemia: efficiently reduced parasitemia
P. berghei [2]; [16]
  average survival days: 9 to 11 days
P. berghei [2]; mice
  in vivo activity against P. berghei relative to chloroquine or artemisinin: in vivo activity against P. berghei greater than chloroquine or artemisinin
[12]
  cytotoxicity IC50: 0.25 mg/L
M. tuberculosis (H37Rv); M. tuberculosis H37Rv
  MIC: 3.13 mg/L
M. tuberculosis (H37Rv); [14]
  % Inhibition: 99%
HIV-1 in human PBM cells; human PBM cells
  EC50: 44.2 µM
Human PBM cells
  IC50: 4.9 µM

## kauluamine
[13]
  cytotoxicity: inactive
